Our source for the TGI values is PubChem BioAssay (NCI).

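Cells were grown in 96-well plates and exposed to each compound for 48 hours at five concentrations; endpoints were interpolated linearly between bracketing concentrations, or set to the highest concentration if not reached. TGI denotes the concentration required for complete inhibition of growth.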

One assay deals with OVCAR-3 ovarian. Description: NCI-60 cell line screen, 48 h.
`O=C(Nn1c(-c2ccccc2)nc2ccccc2c1=O)c1ccc(Cl)cc1` had a TGI above 100 µM.
Still for that read-out and setting: the same measure for `CC(=O)c1ccc(N=NN2CCCC2)cc1`: above 100 µM; for `Cc1nc2sc3cccc(Cl)c3n2c(=O)c1N=Nc1ccc(Cl)cc1`: above 100 µM; for `CSC(=O)/C=C1\SS/C(=C\C(=O)SC)S1`: 11.2 µM.
Still for that read-out and setting: the same measure for `Cn1c(CNc2ccc(-c3n[nH]c(=S)n3C)cc2)n[nH]c1=S`: above 100 µM.
As to `NCCOc1cccc(C2(N3CCCCC3)CCCCC2)c1`, the TGI is above 100 µM.
For `Cc1ccc(N=N/C(=N/NC(=O)c2ccccc2)c2ccc(N(CCC#N)CCC#N)cc2C)cc1`, the TGI was above 100 µM.
`CC(N)(CC(O)(C(F)(F)Cl)C(F)(F)Cl)C(=O)O` (centres undefined): the TGI is above 10 µM.
On the same count and under the same terms, the same measure for `CCCCCCCCCCCCCCCCCCNc1ccn(C2OC(COP(=O)(O)OCC3OC(n4ccc(N)nc4=O)C(O)C3O)C(O)C2O)c(=O)n1` (centres undefined): above 100 µM.
Same read-out and setting: the result for `COc1ccc(CCCCNCc2cccc(CNCCCCc3ccc(OC)cc3)c2)cc1` reads 3.37 µM; that for `CC(SC(=S)N1CCOCC1)C(=O)Nc1nnc(-c2ccc(Cl)cc2)o1` (centres undefined), above 100 µM.
On the same count and under the same terms, the same measure for `CC(=O)c1ccc(Nc2c3c(nc4ccccc24)CCCC3)cc1`: above 44.7 µM.
The molecule `CCN1CCC(O)(c2ccc([N+](=O)[O-])cc2)C(C(=O)c2ccc([N+](=O)[O-])cc2)C1` (centres undefined) registered a TGI of 31.5 µM.
Same read-out and setting: the same measure for `S=C1Cc2c(-c3ccccc3)cc(-c3cccc(Cl)c3)nc2-c2ccccc2N1`: 25.9 µM; for `N#Cc1sc2nc3ccccc3n2c1N`: above 100 µM.
The same measure, in the same setting: the result for `N#Cc1c(NC(=O)C(F)(F)F)sc2c3c(=O)c4ccccc4c(=O)c=3oc3ccccc3c12` reads above 80.1 µM; that for `Cc1c(C)c2c(c(N)c1C#N)C(=O)N(Cc1ccc(S(N)(=O)=O)cc1)C2=O`, above 63.2 µM; that for `CN(NC1=NCCO1)c1ccc2ccccc2c1`, 72.7 µM.
On the same count and under the same terms, the result for `O=C1CC(O)c2cscc21` (centres undefined) reads above 100 µM; that for `COC(=O)/C=C/c1ccc(OP(=O)(O)O)c(OC)c1`, above 100 µM.
As for `COc1ccc(OC)c2sc(N3C(=O)/C(=C/c4cccc(Oc5ccccc5)c4)N=C3c3ccccc3)nc12`, the TGI is above 100 µM.
In turn, `Cc1cc(O)c(/C=N/C(N)=S)c(=O)o1` came in with a TGI above 100 µM.
Still for that read-out and setting: the same measure for `Cc1[nH]n(-c2nc3c(c(=O)[nH]2)CCCC3)c(=O)c1CCO`: above 100 µM.

The next assay relates to HCT-15 colon. Nature of the assay: NCI-60 cell line screen, 48 h.
In turn, `O=C(Nn1c(-c2ccccc2)nc2ccccc2c1=O)c1ccc(Cl)cc1` returned a TGI above 100 µM.
Still for that read-out and setting: the same measure for `CC(=O)c1ccc(N=NN2CCCC2)cc1`: above 100 µM; for `Cc1nc2sc3cccc(Cl)c3n2c(=O)c1N=Nc1ccc(Cl)cc1`: above 100 µM; for `CSC(=O)/C=C1\SS/C(=C\C(=O)SC)S1`: 6.07 µM.
On the same count and under the same terms, the result for `Cn1c(CNc2ccc(-c3n[nH]c(=S)n3C)cc2)n[nH]c1=S` reads above 100 µM.
Still for that read-out and setting: the result for `NCCOc1cccc(C2(N3CCCCC3)CCCCC2)c1` reads above 100 µM; that for `Cc1ccc(N=N/C(=N/NC(=O)c2ccccc2)c2ccc(N(CCC#N)CCC#N)cc2C)cc1`, above 100 µM; that for `CC(N)(CC(O)(C(F)(F)Cl)C(F)(F)Cl)C(=O)O` (centres undefined), above 10 µM.
As for `CCCCCCCCCCCCCCCCCCNc1ccn(C2OC(COP(=O)(O)OCC3OC(n4ccc(N)nc4=O)C(O)C3O)C(O)C2O)c(=O)n1` (centres undefined), the TGI is above 100 µM.
The same measure, in the same setting: the result for `COc1ccc(CCCCNCc2cccc(CNCCCCc3ccc(OC)cc3)c2)cc1` reads 3.55 µM.
Take `CC(SC(=S)N1CCOCC1)C(=O)Nc1nnc(-c2ccc(Cl)cc2)o1` (centres undefined): the TGI is above 100 µM.
Same read-out and setting: the same measure for `CC(=O)c1ccc(Nc2c3c(nc4ccccc24)CCCC3)cc1`: above 100 µM; for `CCN1CCC(O)(c2ccc([N+](=O)[O-])cc2)C(C(=O)c2ccc([N+](=O)[O-])cc2)C1` (centres undefined): 52.9 µM; for `S=C1Cc2c(-c3ccccc3)cc(-c3cccc(Cl)c3)nc2-c2ccccc2N1`: 33.4 µM.
Still for that read-out and setting: the result for `N#Cc1sc2nc3ccccc3n2c1N` reads above 100 µM; that for `N#Cc1c(NC(=O)C(F)(F)F)sc2c3c(=O)c4ccccc4c(=O)c=3oc3ccccc3c12`, 49.7 µM.
As to `Cc1c(C)c2c(c(N)c1C#N)C(=O)N(Cc1ccc(S(N)(=O)=O)cc1)C2=O`, the TGI is above 100 µM.
The same measure, in the same setting: the result for `CN(NC1=NCCO1)c1ccc2ccccc2c1` reads above 100 µM; that for `O=C1CC(O)c2cscc21` (centres undefined), above 100 µM; that for `COC(=O)/C=C/c1ccc(OP(=O)(O)O)c(OC)c1`, above 100 µM.
Still for that read-out and setting: the same measure for `COc1ccc(OC)c2sc(N3C(=O)/C(=C/c4cccc(Oc5ccccc5)c4)N=C3c3ccccc3)nc12`: above 100 µM; for `Cc1cc(O)c(/C=N/C(N)=S)c(=O)o1`: above 100 µM.
On the same count and under the same terms, the same measure for `Cc1[nH]n(-c2nc3c(c(=O)[nH]2)CCCC3)c(=O)c1CCO`: above 100 µM.

A further assay deals with OVCAR-8 ovarian. Description: NCI-60 cell line screen, 48 h.
The molecule `O=C(Nn1c(-c2ccccc2)nc2ccccc2c1=O)c1ccc(Cl)cc1` displayed a TGI above 100 µM.
Still for that read-out and setting: the result for `CC(=O)c1ccc(N=NN2CCCC2)cc1` reads above 100 µM; that for `Cc1nc2sc3cccc(Cl)c3n2c(=O)c1N=Nc1ccc(Cl)cc1`, above 100 µM; that for `CSC(=O)/C=C1\SS/C(=C\C(=O)SC)S1`, 11.7 µM.
On the same count and under the same terms, the same measure for `Cn1c(CNc2ccc(-c3n[nH]c(=S)n3C)cc2)n[nH]c1=S`: above 100 µM.
Same read-out and setting: the result for `NCCOc1cccc(C2(N3CCCCC3)CCCCC2)c1` reads above 100 µM; that for `Cc1ccc(N=N/C(=N/NC(=O)c2ccccc2)c2ccc(N(CCC#N)CCC#N)cc2C)cc1`, above 100 µM; that for `CC(N)(CC(O)(C(F)(F)Cl)C(F)(F)Cl)C(=O)O` (centres undefined), above 10 µM.
In turn, `CCCCCCCCCCCCCCCCCCNc1ccn(C2OC(COP(=O)(O)OCC3OC(n4ccc(N)nc4=O)C(O)C3O)C(O)C2O)c(=O)n1` (centres undefined) had a TGI above 62.2 µM.
On the same count and under the same terms, the result for `COc1ccc(CCCCNCc2cccc(CNCCCCc3ccc(OC)cc3)c2)cc1` reads 3.23 µM.
As to `CC(SC(=S)N1CCOCC1)C(=O)Nc1nnc(-c2ccc(Cl)cc2)o1` (centres undefined), the TGI was above 100 µM.
Still for that read-out and setting: the result for `CC(=O)c1ccc(Nc2c3c(nc4ccccc24)CCCC3)cc1` reads 70.9 µM.
Regarding `CCN1CCC(O)(c2ccc([N+](=O)[O-])cc2)C(C(=O)c2ccc([N+](=O)[O-])cc2)C1` (centres undefined), the TGI is 81.9 µM.
On the same count and under the same terms, the same measure for `S=C1Cc2c(-c3ccccc3)cc(-c3cccc(Cl)c3)nc2-c2ccccc2N1`: 4.39 µM; for `N#Cc1sc2nc3ccccc3n2c1N`: above 100 µM.
Still for that read-out and setting: the result for `N#Cc1c(NC(=O)C(F)(F)F)sc2c3c(=O)c4ccccc4c(=O)c=3oc3ccccc3c12` reads above 56 µM.
Same read-out and setting: the same measure for `Cc1c(C)c2c(c(N)c1C#N)C(=O)N(Cc1ccc(S(N)(=O)=O)cc1)C2=O`: above 35.7 µM; for `CN(NC1=NCCO1)c1ccc2ccccc2c1`: above 100 µM; for `O=C1CC(O)c2cscc21` (centres undefined): above 100 µM.
Molecule `COC(=O)/C=C/c1ccc(OP(=O)(O)O)c(OC)c1` had a TGI above 100 µM.
In the case of `COc1ccc(OC)c2sc(N3C(=O)/C(=C/c4cccc(Oc5ccccc5)c4)N=C3c3ccccc3)nc12`, the TGI was above 100 µM.
On the same count and under the same terms, the result for `Cc1cc(O)c(/C=N/C(N)=S)c(=O)o1` reads above 100 µM; that for `Cc1[nH]n(-c2nc3c(c(=O)[nH]2)CCCC3)c(=O)c1CCO`, above 100 µM.
